Measurements published in publication PMC10366102, “Dose escalation and expansion cohorts in patients with advanced breast cancer in a Phase I study of the CDK7-inhibitor samuraciclib” (Nature Communications, 2023).
Entries after “also recorded” stand apart in the source; their conditions may differ.

Legend:
[1] = design: method as in ref IB; conditions: mouse microsomes; ref IB; cited from earlier work
[2] = design: method as in ref IB; conditions: mouse hepatocytes; ref IB; cited from earlier work
[3] = Module 2A trough PK of samuraciclib and fulvestrant; type: in vivo, human
Description: PK parameters were derived using standard non-compartmental methods.
o. Radionuclide Bone Scans, Whole Body should be performed at Screening. See also footnote a.
• If at Screening bone lesions were identified, scans will be repeated during the active treatment phase and during follow-up visits every 16 weeks (± 7 days) from Cycle 1 Day
1, and at the time of confirmation of CR.
• If no bone lesions were identified at Screening, bone scans will only be performed when clinically indicated (i.e., patient describes new or worsening bone pain or has
increasing alkaline phosphatase level or other signs and symptoms of new/progressing bone metastases) but are required at the time of confirmation of CR. New abnormalities
found on subsequent bone scans must be confirmed by CT scan with bone windows or MRI.
p. Adverse Event Reporting : Serious Adverse Events (SAEs) must be reported from the time the patient provides informed consent through and including 28 calendar days after the last
administration of the study drug. SAEs occurring after the active reporting period has ended should be reported if the investigator becomes aware of them. All SAEs that the investigator
believes have at least a reasonable possibility of being related to the study drugs are to be reported to the Sponsor. All AEs (serious and non-serious) should be recorded on the eCRF […]

For CC(C)c1cnn2c(NCc3ccccc3)cc(NC[C@H]3CCNC[C@@H]3O)nc12 [samuraciclib, Samuraciclib], the Intrinsic clearance [1] is listed as “intermediate”, the Overall turnover [2] is listed as “low” and the “Interaction between samuraciclib and fulvestrant PK” value [3] is listed as “no fulvestrant interaction; also recorded: did not indicate an interaction; also recorded: No clinical PK interactions”.
